Experimental data as given in patent US20170233345A1, “SUBSTITUTED QUINOLINE-4-CARBOXAMIDES AND USE THEREOF” (BAYER PHARMA AKTIENGESELLSCHAFT, priority 2014, published 2017).

tested on: recombinant guanylate cyclase reporter cell line; test: Effect on a recombinant guanylate cyclase reporter cell line; assay type: cell-based; settings: in some cases mean values from individual determinations, read-out: MEC (minimum effective concentration)
Experimental: B-2. Effect on a Recombinant Guanylate Cyclase Reporter Cell Line
The cellular activity of the compounds according to the invention is determined using a recombinant guanylate cyclase reporter cell line, as described in F. Wunder et al., Anal. Biochem. 339, 104-112 (2005).
Representative MEC values (MEC=minimum effective concentration) for the compounds of the invention are shown in the table below (in some cases as mean values from individual determinations): […]

**Q.** For `O=C(NC(CO)c1ccc(F)cc1)c1ccnc2c(OCc3c(F)cccc3F)cccc12` (stereo not drawn) [Example 33], which minimal effective concentration is on record?
**A.** The minimal effective concentration was 2 µM.

**Q.** How did the minimal effective concentration turn out when `Cc1cc(C(=O)NCC(C)(N)CCC(F)(F)F)c2cccc(OCc3c(F)cccc3F)c2n1` (single isomer, unassigned; enantiomer b) [Example 43, ent-N-(2-Amino-5,5,5-trifluoro-2-methylpentyl)-8-[(2,6-difluorobenzyl)oxy]-2-methylquinoline-4-carboxamide (Enantiomer B)] was run?
**A.** The minimal effective concentration was 1 µM.

**Q.** Which minimal effective concentration does the source give for `CCCC[C@H](CO)NC(=O)c1ccnc2c(OCc3c(F)cccc3F)cccc12` [Example 4, 8-[(2,6-Difluorobenzyl)oxy]-N-[(2R)-1-hydroxyhexan-2-yl]quinoline-4-carboxamide] here?
**A.** Its minimal effective concentration is 3 µM.

**Q.** How did the minimal effective concentration turn out when `O=C(NC1CCOc2ncccc21)c1ccnc2c(OCc3c(F)cccc3F)cccc12` (stereo not drawn) [Example 34] was run?
**A.** The minimal effective concentration was 1 µM.

**Q.** Which minimal effective concentration does the source give for `N#CC(NC(=O)c1ccnc2c(OCc3c(F)cccc3F)cccc12)c1ccc(Cl)cc1` (stereo not drawn) [Example 31] here?
**A.** The minimal effective concentration was 3 µM.

**Q.** With `CCC(N)(CC)CNC(=O)c1ccnc2c(OCc3c(F)cccc3F)cccc12` [Example 11] as the compound, how does the minimal effective concentration read?
**A.** Its minimal effective concentration is 3 µM.

**Q.** How did the minimal effective concentration turn out when `CN1CCC(NC(=O)c2ccnc3c(OCc4c(F)cccc4F)cccc23)c2ccccc21` (stereo not drawn) [Example 27] was run?
**A.** The minimal effective concentration was 1 µM.

**Q.** `O=C(NCc1ccccc1-c1cccnc1)c1ccnc2c(OCc3c(F)cccc3F)cccc12` [Example 15] was tested. Which minimal effective concentration did it give?
**A.** The minimal effective concentration was 10 µM.

**Q.** Which minimal effective concentration does the source give for `COc1ccc(CC(C)(N)CNC(=O)c2ccnc3c(OCc4c(F)cccc4F)cccc23)cc1` (single isomer, unassigned; enantiomer b) [Example 37, ent-N-[2-Amino-3-(4-methoxyphenyl)-2-methylpropyl]-8-[(2,6-difluorobenzyl)oxy]quinoline-4-carboxamide (Enantiomer B)] here?
**A.** The minimal effective concentration was 10 µM.

**Q.** `O=C(NC1(c2ccc(F)c(F)c2)CC1)c1ccnc2c(OCc3c(F)cccc3F)cccc12` [Example 1, 8-[(2,6-Difluorobenzyl)oxy]-N-[1-(3,4-difluorophenyl)cyclopropyl]quinoline-4-carboxamide] was tested. Which minimal effective concentration did it give?
**A.** The minimal effective concentration was 3 µM.

**Q.** With `CC(N)(CNC(=O)c1ccnc2c(OCc3c(F)cccc3F)cccc12)C1CC1` (racemic) [Example 42, rac-N-(2-Amino-2-cyclopropylpropyl)-8-[(2,6-difluorobenzyl)oxy]quinoline-4-carboxamide] as the compound, how does the minimal effective concentration read?
**A.** The minimal effective concentration was 10 µM.

**Q.** With `O=C(NC1CC1c1ccccc1)c1ccnc2c(OCc3c(F)cccc3F)cccc12` (stereo not drawn) [Example 13] as the compound, how does the minimal effective concentration read?
**A.** The minimal effective concentration was 10 µM.

**Q.** Which minimal effective concentration does the source give for `O=C(NCCN(CC(F)F)C1CC1)c1ccnc2c(OCc3c(F)cccc3F)cccc12` [Example 23] here?
**A.** Its minimal effective concentration is 3 µM.

**Q.** For `COc1ccc(CC(C)(N)CNC(=O)c2ccnc3c(OCc4c(F)cccc4F)cccc23)cc1` (single isomer, unassigned; enantiomer a) [Example 36, ent-N-[2-Amino-3-(4-methoxyphenyl)-2-methylpropyl]-8-[(2,6-difluorobenzyl)oxy]quinoline-4-carboxamide (Enantiomer A)], which minimal effective concentration is on record?
**A.** Its minimal effective concentration is 3 µM.

**Q.** `O=C(N[C@H]1CCOC1=O)c1ccnc2c(OCc3c(F)cccc3F)cccc12` [Example 24] was tested. Which minimal effective concentration did it give?
**A.** The minimal effective concentration was 10 µM.

**Q.** For `CC1(C)CC(NC(=O)c2ccnc3c(OCc4c(F)cccc4F)cccc23)CC(C)(C)N1` [Example 12], which minimal effective concentration is on record?
**A.** Its minimal effective concentration is 10 µM.

**Q.** How did the minimal effective concentration turn out when `Cc1[nH]nc(C(F)(F)F)c1NC(=O)c1ccnc2c(OCc3c(F)cccc3F)cccc12` [Example 19] was run?
**A.** The minimal effective concentration was 3 µM.

**Q.** `Cc1nn(Cc2ccc(F)cc2)c(C)c1NC(=O)c1ccnc2c(OCc3c(F)cccc3F)cccc12` [Example 17] was tested. Which minimal effective concentration did it give?
**A.** Its minimal effective concentration is 10 µM.

**Q.** Which minimal effective concentration does the source give for `O=C(NCc1ccc(Cl)nc1)c1ccnc2c(OCc3c(F)cccc3F)cccc12` [Example 20] here?
**A.** The minimal effective concentration was 3 µM.

**Q.** With `O=C(NC1(c2ccc(F)cc2)CC1)c1cnc2c(OCc3c(F)cccc3F)cccc2c1` [Example 39, 8-[(2,6-Difluorobenzyl)oxy]-N-[1-(4-fluorophenyl)cyclopropyl]quinoline-3-carboxamide] as the compound, how does the minimal effective concentration read?
**A.** Its minimal effective concentration is 1 µM.

**Q.** Which minimal effective concentration does the source give for `N#C[C@H]1CC[C@H](CNC(=O)c2ccnc3c(OCc4c(F)cccc4F)cccc23)CC1` [Example 44] here?
**A.** Its minimal effective concentration is 10 µM.
